According to PMC11580958 (bioRxiv, 2024):
Residues, ends and D or L forms follow the SMILES beside them. *: point of attachment. Cbz = O=C(OCc1ccccc1)*

Assays:
[1] = test system: BMDCs; assay: […] antigen presentation on DCs; format: cell-based, C57BL/6 mouse; conditions: CpG adjuvant, treatment 12-24 h, flow cytometry
[2] = target: CRBN protein (Homo sapiens, UniProt Q96SW2); assay: Nano ITC measurement of PROTAV-CRBN binding; conditions: data did not fit the binding model
Chain of CRBN protein (Q96SW2 whole entry, species assumed): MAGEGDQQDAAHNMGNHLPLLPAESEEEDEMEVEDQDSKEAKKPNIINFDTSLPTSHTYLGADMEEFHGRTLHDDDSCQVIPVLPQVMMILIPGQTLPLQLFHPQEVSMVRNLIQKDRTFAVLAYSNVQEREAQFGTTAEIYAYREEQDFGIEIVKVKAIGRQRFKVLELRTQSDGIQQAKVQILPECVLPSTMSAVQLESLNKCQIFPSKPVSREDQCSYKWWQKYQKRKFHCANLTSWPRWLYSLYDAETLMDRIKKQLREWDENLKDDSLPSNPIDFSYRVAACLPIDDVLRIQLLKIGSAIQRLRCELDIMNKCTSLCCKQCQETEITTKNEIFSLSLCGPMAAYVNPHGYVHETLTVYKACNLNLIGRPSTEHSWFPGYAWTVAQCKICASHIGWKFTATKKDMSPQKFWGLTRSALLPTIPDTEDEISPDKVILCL

Molecule	H-2Kb/SIINFEKL presentation on DCs (in words) [1]	Binding to CRBN (in words) [2]
CC(C)C[C@@H](C=O)NC(=O)[C@H](CC(C)C)NC(=O)[C@H](CC(C)C)NC(=O)OCc1ccccc1 [MG132] (Cbz-Leu-Leu-Leu-aldehyde)	reduced the level of SIINFEKL presentation on DCs	–
chicken ovalbumin (protein) MGSIGAASMEFCFDVFKELKVHHANENIFYCPIAIMSALAMVYLGAKDSTRTQINKVVRFDKLPGFGDSIEAQCGTSVNVHSSLRDILNQITKPNDVYSFSLASRLYAEERYPILPEYLQCVKELYRGGLEPINFQTAADQARELINSWVESQTNGIIRNVLQPSSVDSQTAMVLVNAIVFKGLWEKAFKDEDTQAMPFRVTEQESKPVQMMYQIGLFRVASMASEKMKILELPFASGTMSMLVLLPDEVSGLEQLESIINFEKLTEWTSSNVMEERKIKVYLPRMKMEEKYNLTSVLMAMGITDVFSSSANLSGISSAESLKISQAVHAAHAEINEAGREVVGSAEAGVDAASVSEEFRADHPFLFCIKHIATNAVLFFGRCVSP	–	negligible binding
